Data taken from ChEMBL document CHEMBL1130322, “Anticancer and antiviral effects and inactivation of S-adenosyl-L-homocysteine hydrolase with 5'-carboxaldehydes and oximes synthesized from adenosine and sugar-modified analogues” (J Med Chem, 1997).
pKi: −log10 of the molar value. Values after ≈ are worked out from the molar mass of the structure shown.

Tests used:
E6SM = assay: Minimum inhibitory concentration required to effect a microscopically visible change of cell morphology in human embryonic skin-muscle (E6SM) cell culture.; type: functional; set-up: unit not given here
Human alphaherpesvirus 1 [1] = assay: microbe, parasite or virus in culture
Vero [2] = assay: cells; settings: Chlorocebus sabaeus
CCRF-CEM = assay: cells; settings: Homo sapiens
HEL = assay: 50% Cytostatic concentration required to inhibit human erythroleukemic (HEL) cell proliferation; type: functional; set-up: unit not given here
Vero [3] = assay: cells; settings: Chlorocebus sabaeus; remark: listed apart in the source
Vero [4] = assay: cells; settings: Chlorocebus sabaeus; remark: listed apart in the source
Vero [5] = assay: cells; settings: Chlorocebus sabaeus; remark: listed apart in the source
Human betaherpesvirus 5 [6] = assay: microbe, parasite or virus in culture
Human alphaherpesvirus 2 = assay: microbe, parasite or virus in culture
Human betaherpesvirus 5 [7] = assay: microbe, parasite or virus in culture; remark: listed apart in the source
Human alphaherpesvirus 1 [8] = assay: microbe, parasite or virus in culture; remark: listed apart in the source
Human alphaherpesvirus 1 [9] = assay: microbe, parasite or virus in culture; remark: listed apart in the source
L1210 = assay: cells; settings: Mus musculus
MOLT-4 = assay: cells; settings: Homo sapiens
Vero [10] = assay: cells; settings: Chlorocebus sabaeus; remark: listed apart in the source
FM3A = assay: cells; settings: Mus musculus
HeLa [11] = assay: Minimum inhibitory concentration required to effect a microscopically visible change of cell morphology in HeLa cell culture.; type: functional, Homo sapiens; set-up: unit not given here
Adenosylhomocysteinase [12] = target: T1, Adenosylhomocysteinase (Homo sapiens, UniProt P23526)
Target sequence in this assay (P23526 whole entry): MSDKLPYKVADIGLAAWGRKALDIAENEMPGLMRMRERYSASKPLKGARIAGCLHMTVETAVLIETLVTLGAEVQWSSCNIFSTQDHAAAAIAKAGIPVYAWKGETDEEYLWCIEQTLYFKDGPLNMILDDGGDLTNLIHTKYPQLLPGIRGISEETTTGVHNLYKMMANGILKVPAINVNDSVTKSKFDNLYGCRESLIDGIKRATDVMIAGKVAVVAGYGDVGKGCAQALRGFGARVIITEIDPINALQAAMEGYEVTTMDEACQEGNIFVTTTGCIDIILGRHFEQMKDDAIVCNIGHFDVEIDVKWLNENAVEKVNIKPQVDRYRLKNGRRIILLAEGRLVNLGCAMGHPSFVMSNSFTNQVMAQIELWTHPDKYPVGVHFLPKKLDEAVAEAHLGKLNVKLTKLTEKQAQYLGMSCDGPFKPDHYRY

Vero [13] = assay: Minimum inhibitory concentration required to effect a microscopically visible change of cell morphology in Vero cell culture.; type: functional, Chlorocebus sabaeus; set-up: unit not given here
Vero [14] = assay: cells; settings: Chlorocebus sabaeus; remark: listed apart in the source
HeLa [15] = assay: cells; settings: Homo sapiens
HeLa [16] = assay: cells; settings: Homo sapiens; remark: listed apart in the source
MDCK [17] = type: functional, Canis lupus familiaris; set-up: unit not given here
MDCK [18] = assay: cells; settings: Canis lupus familiaris
Adenosylhomocysteinase [19] = target: T1, Adenosylhomocysteinase; remark: listed apart in the source
Target sequence in this assay (P23526 2-432 limits assumed): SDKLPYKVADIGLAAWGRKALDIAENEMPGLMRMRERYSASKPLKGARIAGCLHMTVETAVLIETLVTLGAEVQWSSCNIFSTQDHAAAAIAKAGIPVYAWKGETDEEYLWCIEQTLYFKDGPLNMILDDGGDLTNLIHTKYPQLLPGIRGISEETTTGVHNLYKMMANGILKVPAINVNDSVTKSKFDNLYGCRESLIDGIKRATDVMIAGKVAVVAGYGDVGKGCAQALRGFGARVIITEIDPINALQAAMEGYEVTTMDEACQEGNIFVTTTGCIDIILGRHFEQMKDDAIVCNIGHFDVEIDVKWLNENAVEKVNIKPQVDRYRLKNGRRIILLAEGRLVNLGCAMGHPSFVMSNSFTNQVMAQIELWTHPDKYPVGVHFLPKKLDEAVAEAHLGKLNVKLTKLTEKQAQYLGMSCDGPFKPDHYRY

MDCK [20] = assay: cells; settings: Canis lupus familiaris; remark: listed apart in the source
[21] = test system: Respiratory syncytial virus; assay: microbe, parasite or virus in culture; settings: human respiratory syncytial virus, HeLa
Human alphaherpesvirus 1 [22] = assay: microbe, parasite or virus in culture; remark: listed apart in the source
Human alphaherpesvirus 1 [23] = assay: microbe, parasite or virus in culture; remark: listed apart in the source

Row | SMILES | MIC (E6SM) | EC50 (Human alphaherpesvirus 1 [1]) [µg/mL] | EC50 (Vero [2]) [µg/mL] | IC50 (CCRF-CEM) [µg/mL] | CC50 (HEL) | EC50 (Vero [3]) [µg/mL] | EC50 (Vero [4]) [µg/mL] | EC50 (Vaccinia virus) [µg/mL] | EC50 (Vero [5]) [µg/mL] | EC50 (Human betaherpesvirus 5 [6]) [µg/mL] | EC50 (Human alphaherpesvirus 2) [µg/mL] | EC50 (Human betaherpesvirus 5 [7]) [µg/mL] | EC50 (Human alphaherpesvirus 1 [8]) [µg/mL] | EC50 (Human alphaherpesvirus 1 [9]) [µg/mL] | IC50 (L1210) [µg/mL] | IC50 (MOLT-4) [µg/mL] | EC50 (Vero [10]) [µg/mL] | IC50 (FM3A) [µg/mL] | other results
1 | Nc1ncnc2c1ncn2C1OC(C=O)CC1O (centres undefined) | >400 | > 400 | > 200 | > 200 | >50 | > 200 | > 200 | > 400 | > 400 | > 40 | > 400 | > 40 | > 400 | > 100 | > 200 | > 200 | > 400 | > 200 | 
2 | Nc1ncnc2c1ncn2[C@@H]1O[C@H](C=O)[C@@H](O)[C@H]1O | >400 | > 400 | > 200 | 7.3 (≈ 27.5 µM) | >50 | > 200 | > 200 | 70 (≈ 264 µM) | > 200 | > 40 | > 400 | > 40 | > 400 | > 400 | 9.71 (≈ 36.6 µM) | 41.5 (≈ 156 µM) | 300 (≈ 1130 µM) | 15 (≈ 56.6 µM) | 
3 | Nc1ncnc2c1ncn2C1CC(O)C(/C=N/O)O1 (centres undefined) | 200 | > 100 | > 100 | 13.8 (≈ 52.2 µM) | 14 | > 100 | > 100 | > 100 | > 100 | 1 (≈ 3.78 µM) | > 100 | 0.6 (≈ 2.27 µM) | > 100 | > 100 | 4.6 (≈ 17.4 µM) | 17 (≈ 64.3 µM) | > 100 | 11.2 (≈ 42.4 µM) | 
4 | Nc1ncnc2c1ncn2C1O[C@H](/C=N/OCc2ccccc2)[C@@H](O)[C@H]1O (some centres undefined) | 100 | > 40 | > 100 | 136 (≈ 367 µM) | 33 | > 100 | > 100 | 2 (≈ 5.4 µM) | > 100 | > 10 | > 40 | > 10 | > 40 | > 40 | 187 (≈ 505 µM) | 118 (≈ 319 µM) | > 40 | 340 (≈ 918 µM) | MIC (HeLa [11]): >200; pKi (Adenosylhomocysteinase [12]): 7.00; MIC (Vero [13]): >200; EC50 (Vero [14]): > 100 µg/mL; EC50 (HeLa [15]): > 200 µg/mL; EC50 (HeLa [16]): > 200 µg/mL; MIC (MDCK [17]): 100; EC50 (MDCK [18]): 20 µg/mL (≈ 54 µM); k2 (Adenosylhomocysteinase [19]): 0.036 min⁻¹; EC50 (MDCK [20]): 20 µg/mL (≈ 54 µM); EC50 [21]: > 200 µg/mL
5 | Nc1ncnc2c1ncn2C1O[C@H](C(O)O)[C@@H](O)[C@@H]1O (some centres undefined) | >400 | 300 (≈ 1060 µM) | 300 (≈ 1060 µM) | 118 (≈ 417 µM) | >50 | > 200 | > 200 | 20 (≈ 70.6 µM) | 150 (≈ 530 µM) | > 40 | > 400 | > 40 |  |  | 156 (≈ 551 µM) | > 200 | > 400 | 125 (≈ 441 µM) | EC50 (Human alphaherpesvirus 1 [22]): > 400 µg/mL; EC50 (Human alphaherpesvirus 1 [23]): > 400 µg/mL
6 | Nc1ncnc2c1ncn2C1CC(O)C(C=O)O1 (centres undefined) | >400 | > 400 | > 200 | 17.8 (≈ 71.4 µM) | >50 | > 200 | > 200 | > 400 | 70 (≈ 281 µM) | > 40 | > 400 | > 40 | > 400 | > 400 | 6.64 (≈ 26.6 µM) | 4.96 (≈ 19.9 µM) | > 400 | 50.9 (≈ 204 µM) | 
7 | Nc1ccnc2c1ncn2[C@@H]1O[C@H](CO)[C@@H](O)[C@H]1O | >400 | > 400 | 4 (≈ 15 µM) |  |  | > 400 | 4 (≈ 15 µM) | 0.7 (≈ 2.63 µM) | 0.2 (≈ 0.751 µM) |  | > 400 |  | 40 (≈ 150 µM) | > 400 |  |  | 0.7 (≈ 2.63 µM) |  | 
8 | CO/N=C/[C@H]1OC(n2cnc3c(N)ncnc32)[C@H](O)[C@@H]1O (some centres undefined) | 400 | > 200 | > 100 | 330 (≈ 1120 µM) | >50 | > 100 | > 100 | 100 (≈ 340 µM) | > 100 | > 10 | > 200 | > 10 |  |  | 271 (≈ 921 µM) | 218 (≈ 741 µM) | 150 (≈ 510 µM) | 19 (≈ 64.6 µM) | MIC (HeLa [11]): >200; pKi (Adenosylhomocysteinase [12]): 7.02; MIC (Vero [13]): >200; EC50 (Human alphaherpesvirus 1 [22]): > 200 µg/mL; EC50 (Vero [14]): > 100 µg/mL; EC50 (HeLa [15]): > 200 µg/mL; EC50 (HeLa [16]): > 200 µg/mL; MIC (MDCK [17]): 20; EC50 (MDCK [18]): 0.8 µg/mL (≈ 2.72 µM); k2 (Adenosylhomocysteinase [19]): 0.048 min⁻¹; EC50 (MDCK [20]): 4 µg/mL (≈ 13.6 µM); EC50 (Human alphaherpesvirus 1 [23]): > 200 µg/mL; EC50 [21]: > 200 µg/mL
